Counter-ions that a name gives are not always drawn.

In the first data set the target is T1, TRPV1 receptor (Homo sapiens, UniProt Q8NER1).
T1 construct: expressed in transfected cells; host or cells: HEK-293 cells stably expressing mitochondrial targeted Aequorin, transduced with TRPV1 BacMam
T1 sequence (Q8NER1 whole entry): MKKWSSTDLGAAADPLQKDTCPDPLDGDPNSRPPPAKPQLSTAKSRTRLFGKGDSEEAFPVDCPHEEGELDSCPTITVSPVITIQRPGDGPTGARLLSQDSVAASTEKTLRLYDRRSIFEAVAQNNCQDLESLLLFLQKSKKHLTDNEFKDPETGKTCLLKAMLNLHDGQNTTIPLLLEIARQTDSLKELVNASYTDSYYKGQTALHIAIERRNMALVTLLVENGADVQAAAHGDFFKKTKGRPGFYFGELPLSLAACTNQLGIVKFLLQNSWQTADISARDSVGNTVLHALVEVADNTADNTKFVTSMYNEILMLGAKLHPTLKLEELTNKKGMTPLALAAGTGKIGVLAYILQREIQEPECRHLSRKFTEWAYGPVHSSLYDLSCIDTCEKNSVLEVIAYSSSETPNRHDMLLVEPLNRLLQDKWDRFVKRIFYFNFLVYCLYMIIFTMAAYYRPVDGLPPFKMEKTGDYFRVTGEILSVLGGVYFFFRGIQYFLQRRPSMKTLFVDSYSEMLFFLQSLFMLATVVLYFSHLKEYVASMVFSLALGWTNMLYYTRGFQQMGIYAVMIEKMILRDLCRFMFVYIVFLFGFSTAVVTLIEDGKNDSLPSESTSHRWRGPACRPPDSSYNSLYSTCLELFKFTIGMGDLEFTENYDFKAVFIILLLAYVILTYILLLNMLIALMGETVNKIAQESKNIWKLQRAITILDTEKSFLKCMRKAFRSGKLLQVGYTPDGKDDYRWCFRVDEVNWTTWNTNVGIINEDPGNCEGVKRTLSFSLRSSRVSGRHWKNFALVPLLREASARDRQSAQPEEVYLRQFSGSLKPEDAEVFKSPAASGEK
The experiment in a line: Capsaicin assay for TRPV1 receptor antagonism (aequorin luminescence, HEK-293 cells expressing TRPV1). Particulars: HEK-293 cells expressing TRPV1, pH 7.4, challenge with 4×EC50 capsaicin, 15 min preincubation; read-out: pIC50 in the Capsaicin assay (converted). In kind it is cell-based. How it is done:
Assays for the functional inhibition of TRPV1 Ion Channel by test compound using Capsaicin or Acid Stimulus challenge were performed.
Compounds were dissolved in DMSO to 1 mM. An 11 point 4 fold serial dilution was prepared and 0.5 ul dispensed into Greiner black clear bottom 384 well plates.
HEK-293 cells stably expressing mitochondrial targeted Aequorin were transfected with TRPV1 receptor bacmam at scale for cryopreservation in 1 ml vial aliquots. Cells can be stored at −140° C. for up to 18 months.
18-20 hours before assay, cells were rapidly thawed in a water bath at 37° C. and transferred to a 50 ml Falcon tube. Cells were resuspended in 9 mls of M1 ‘generic’ media (DMEM/F12 with 10% dialysed FBS-Invitrogen 041-95750V) for every 1 ml cells and then centrifuged for 5 min at 1000 rpm. The cell pellet was resuspended in ˜10 mls loading buffer (Tyrodes Base Buffer*+0.1% Pluronic Acid F68 solution+0.1% BSA) and the pH was adjusted to 7.4 for Capsaicin stimulus assay or 6.7 for Acid stimulus assay. Cell density was calculated using the Trypan Blue stain method and adjusted to 2.5×10 e6 cells/ml using loading buffer. Coelentrazine (DiscoverX Cat. No 0-0084L-500 uM stock made in 100% ethanol) was added to a final concentration of 5 uM and the falcon tube was covered in foil (to protect from light) and placed on a windmill rotator at room temperature for approximately 20 hours. *Base Buffer=Sigma kit T2145 was dissolved in deionised water, 20 mL HEPES solution (Sigma H0887) and 13.4 mL of NaHCO3 (Sigma S8761) and made up to 1 L.
After loading, a cell count was taken and cell density adjusted accordingly depending on assay stimulus.
For Capsaicin stimulus assay cells were diluted to 1.25×10 e5 cells/ml using dilution buffer (Tyrodes Base Buffer+0.1% Pluronic Acid F68 solution) at pH 7.4
To the compound plates, the following additions were made:
20 ul dilution buffer at pH 7.4 followed by 20 ul cells were added to the test compound plate and any agonist activity measured as luminescence AUC counts. The compound/cell mix was incubated for 15 minutes and then challenged with 20 ul of a 4×EC50 concentration of Capsaicin (calculated on the day of assay), with concomitant luminescence detection.
AUC data was exported from the reader and data analysis was performed using 4 parameter logistic model, with data normalised to nominal high and low controls within plate.
As to `Clc1cccc(O[C@H]2C[C@H](NCc3cccn4ccnc34)C2)c1Cl` [Example 2, trans-3-[(2,3-Dichlorophenl)oxy]-N-(imidazo[1,2-a]pyridin-8-ylmethyl)cyclobutanamine], the IC50 was 1.26 to 100 nM.

Regarding `FC(F)(F)c1cccc(O[C@H]2C[C@H](NCc3cccn4ccnc34)C2)c1Cl` [Example 4, trans-3-{[2-Chloro-3-(trifluoromethyl)phenyl]oxy}-N-(imidazo[1,2-a]pyridin-8-ylmethyl)cyclobutanamine], the IC50 is 1.26 to 100 nM. On the same count and under the same terms, to `OCc1cnc2c(CN[C@H]3C[C@H](Oc4cccc(Cl)c4Cl)C3)cccn12` [Example 15, {8-[({trans-3-[(2,3-Dichlorophenyl)oxy]cyclobutyl}amino)methyl]imidazo[1,2-a]pyridin-3-yl}methanol] belongs 1.26 to 100 nM. Same read-out and setting: to `Fc1ccc(O[C@H]2C[C@H](NCc3cccn4ccnc34)C2)cc1C(F)(F)F` [Example 7, trans-3-{[4-Fluoro-3-(trifluoromethyl)phenyl]oxy}-N-(imidazo[1,2-a]pyridin-8-ylmethyl)cyclobutanamine] belongs 1.26 to 100 nM.

As for `CC(C)(C)c1c(F)cc(O[C@H]2C[C@@H](NCc3cccn4ccnc34)C2)cc1F` [Example 12, cis-3-{[4-(1,1-Dimethylethyl)-3,5-difluorophenyl]oxy}-N-(imidazo[1,2-a]pyridin-8-ylmethyl)cyclobutanamine], the IC50 was 1.26 to 100 nM. Still for that read-out and setting: the value for `FC(F)(F)c1cc(Cl)ccc1O[C@H]1C[C@H](NCc2cccn3ccnc23)C1` [Example 9, trans-3-{[4-Chloro-2-(trifluoromethyl)phenyl]oxy}-N-(imidazo[1,2-a]pyridin-8-ylmethyl)cyclobutanamine] was 1.26 to 100 nM; that for `Fc1ccc(O[C@H]2C[C@H](NCc3cccn4ccnc34)C2)cc1Cl` [Example 5, trans-3-[(3-Chloro-4-fluorophenyl)oxy]-N-(imidazo[1,2-a]pyridin-8-ylmethyl)cyclobutanamine, trifluoroacetate] was 1.26 to 100 nM.

Regarding `OCc1ccc(CN[C@H]2C[C@H](Oc3cccc(Cl)c3Cl)C2)c2nccn12` [Example 13, {8-[({trans-3-[(2,3-Dichlorophenyl)oxy]cyclobutyl}amino)methyl]imidazo[1,2-a]pyridin-5-yl}methanol], the IC50 was 1.26 to 100 nM.

For the compound `CC(C)(C)c1c(F)cc(O[C@H]2C[C@H](NCc3cccn4ccnc34)C2)cc1F` [Example 11, trans-3-{[4-(1,1-Dimethylethyl)-3,5-difluorophenyl]oxy}-N-(imidazo[1,2-a]pyridin-8-ylmethyl)cyclobutanamine], the IC50 was 1.26 to 100 nM. Same read-out and setting: to `FC(F)(F)c1cc(O[C@H]2C[C@H](NCc3cccn4ccnc34)C2)ccc1Cl` [Example 6, trans-3-{[4-Chloro-3-(trifluoromethyl)phenyl]oxy}-N-(imidazo[1,2-a]pyridin-8-ylmethyl)cyclobutanamine] belongs 1.26 to 100 nM. The same measure, in the same setting: the value for `FC(F)(F)c1cccc(O[C@H]2C[C@H](NCc3cccn4ccnc34)C2)c1` [Example 1, trans-N-(Imidazo[1,2-a]pyridin-8-ylmethyl)-3-{[3-(trifluoromethyl)phenyl]oxy}cyclobutanamine] was 1.26 to 100 nM; that for `OCc1ccc(CN[C@H]2C[C@H](Oc3ccc(F)c(C(F)(F)F)c3)C2)c2nccn12` [Example 14, (8-{[(trans-3-{[4-Fluoro-3-(trifluoromethyl)phenyl]oxy}cyclobutyl)amino]methyl}imidazo[1,2-a]pyridin-5-yl)methanol] was 1.26 to 100 nM. Still for that read-out and setting: to `FC(F)(F)c1ccc(O[C@H]2C[C@H](NCc3cccn4ccnc34)C2)c(Cl)c1` [Example 8, trans-3-{[2-Chloro-4-(trifluoromethyl)phenyl]oxy}-N-(imidazo[1,2-a]pyridin-8-ylmethyl)cyclobutanamine] belongs 1.26 to 100 nM.

The subject of another data set is i.v. Capsaicin Induced Bronchoconstriction. The data set is described as follows: Inhibition of i.v. capsaicin induced bronchoconstriction in anesthetized guinea pigs. In kind it is in vivo. As to conditions: Cavia porcellus, intra-tracheal dosing 1 hour before capsaicin 20 ug/kg i.v., estimated from dose response 0.005-5 mg/kg. On the procedure:
Male Hartley Guinea Pigs weighing between 400 and 700 g were anesthetized with ketamine/xylazine mixture (88/15 mg/kg, i.m.). Animals were placed on their back, a toe pinch was performed to ensure depth of anaesthesia and a section of skin and fur was dissected away from the neck. The trachea, jugular vein, and carotid artery were isolated and cannulated to allow for ventilation, drug delivery, and blood pressure monitoring. Compounds were delivered via intra-tracheal delivery (in 200 uL of 0.5% Tween 80) 1 hour before capsaicin challenge. Depth of anaesthesia was confirmed by toe pinch and the Guinea pigs were placed in the full body plethysmograph. The chamber was closed and the animal was paralyzed by administration of Gallamine (2 mg/kg i.v.). Animals were ventilated at ˜1.0 mL/110 g, 60-65 breaths per minute by a Harvard Apparatus rodent respirator. Blood pressure and heart rate were continuously monitored to assess the level of anaesthesia, with supplemental anaesthetic doses given as required to maintain the proper level of anaesthesia. […] The BioWindow Cardio Pulmonary Software version 1.02 (Modular Instruments, Inc.) recorded arterial pressure, pulmonary pressure and airflow. Air pressure delta (difference between maximum and minimum air pressure) was used as the primary readout of inhibition of the capsaicin induced bronchoconstriction. […]
As for `Cl.Fc1ccc(O[C@H]2C[C@H](NCc3cccn4ccnc34)C2)cc1C(F)(F)F` [Example 7A, trans-3-{[4-Fluoro-3-(trifluoromethyl)phenyl]oxy}-N-(imidazo[1,2-a]pyridin-8-ylmethyl)cyclobutanamine, hydrochloride salt], the ED50 (as a rule, the dose that gives a 50% effect, or the effect in half of the subjects) is 0.033 mg/kg.

The same data set, now with this note: dose 30 ug/kg intra-tracheal, 1 hour before capsaicin 20 ug/kg i.v., n=3.
Take `OCc1ccc(CN[C@H]2C[C@H](Oc3cccc(Cl)c3Cl)C2)c2nccn12` [Example 13, {8-[({trans-3-[(2,3-Dichlorophenyl)oxy]cyclobutyl}amino)methyl]imidazo[1,2-a]pyridin-5-yl}methanol]: the “inhibition of capsaicin induced bronchoconstriction” value is recorded as 61% (+/−16.6%).

Tested on in another data set: not listed separately
The data set is described as follows: Solubility in simulated lung fluid. In kind it is physicochemical. As to conditions: Phosphate buffer, pH 6.9, 0.75 mM lecithin, 0.1% BSA, 37° C. over 4 hours.
Regarding `Fc1ccc(O[C@H]2C[C@H](NCc3cccn4ccnc34)C2)cc1C(F)(F)F.O=C(O)/C=C\C(=O)O` [Example 7B, trans-3-{[4-Fluoro-3-(trifluoromethyl)phenyl]oxy}-N-(imidazo[1,2-a]pyridin-8-ylmethyl)cyclobutanamine, maleate salt], the solubility (usually how much of the substance goes into solution per volume) at 4 h is 1780 µg/mL.

The values are drawn from patent US8754101B2, “N-cyclobutyl-imidazopyridine-methylamine as TRPV1 antagonists” (Glaxo Group Limited, priority 2011, dated 2014).
